Measured values reported in publication PMC5344539, “Nematode neuropeptides as transgenic nematicides” (PLoS Pathogens, 2017).
Entries after “also recorded” stand apart in the source; their conditions may differ.

Key:
M. incognita J2s [1] = assay: Chemosensory (chemotaxis) assay of uNLP pre-treated J2s towards tomato root exudate; assay type: in vivo, Meloidogyne incognita; details: for CI score: Fig 1A, J2s incubated in 100 μM uNLP for 24 h, tomato cv. Moneymaker root exudate vs water agar plugs, counted after 3 h, mean of 10 replicates of 100 J2s, control 0.4426
Method: (§1) Predicted uNLPs from both M. incognita and G. pallida were synthesised by EZBiolab and dissolved into pH adjusted ddH2O to make a 5 mM stock which was aliquoted and stored at -20°C. J2s of both M. incognita and G. pallida were incubated for 24 hours in 200 μl of each peptide in a 24 well plate (SPL Lifesciences, South Korea) at a defined concentration.
A 60 mm Petri dish was divided into two segments, a positive and a negative side, with a 0.5 cm 'dead zone' either side of the centre point. The petri dish was filled with 15 ml of 0.25% w/v agar which was allowed to solidify. 3 ml of 0.25% w/v agar slurry in spring water (pH 7, agitated with a magnetic stirrer for several hours to give a smooth consistency) was added to the petri dish and spread evenly over the surface. Root diffusate (attractant) and water only (control) 0.25% agar plugs were embedded in the agar slurry, either side of the assay arena. Root diffusate was collected from 10 tomato plants, aged 3–6 weeks in 1 litre pots, by pouring 500 ml of ddH20 through the soil three times. Diffusate from each plant was combined, filter sterilised and stored at 4°C for a maximum of 1 month. Root diffusate agar plugs were made by melting 1.25% agar in ddH20, cooling to 50°C before mixing with 4 parts of root diffusate. The agar was then allowed to solidify at room temperature. 100 uNLP pre-treated M. incognita or G. pallida J2s were added by pipette to the centre of the plate. J2s which moved out of the 'dead zone' after 3 hours were counted and their location (+/-) scored. The distribution of J2s were used to create a chemotaxis index for each plate, which formed one replicate, a total of 10 replicates where completed for each uNLP treatment.

M. incognita J2s [2] = assay: Serotonin-induced stylet thrusting assay; assay type: in vivo, Meloidogyne incognita; details: Fig 1C; J2s incubated in 100 μM uNLP for 24 h; stylet thrusts in 5 mM serotonin, counted 1 min; normalised to control = 100%; mean, at least 30 J2s
Method: as §1
Stylet thrusting assays where performed by incubating 100 M. incognita or G. pallida J2s for 15 minute in 5 mM or 2 mM serotonin (Sigma Aldrich, USA), respectively. J2s were placed on a glass slide and stylet thrusts were counted for randomly selected J2s, for 1 minute each. Counts for a given cohort of J2s were taken in a maximum interval of 15 minutes. Longer counting intervals, making for longer serotonin incubations, yielded inconsistent results. At least 30 J2s were counted for each neuropeptide treatment.

M. incognita J2s [3] = assay: Plant protection assay, B. subtilis secreting uNLPs; assay type: in vivo, Meloidogyne incognita; details: Fig 4B; peptide secreted by transgenic B. subtilis culture in tomato invasion arena with 500 J2s; control = 100%; mean
Method: (§2) Tomato seeds were sterilised with 2.5% NaOCl for 15 minutes, washed 5 times in ddH20 and germinated on 0.5% Murashige and Skoog plates at 23°C. […] Invasion assays were performed by mixing 500 pre-treated M. incognita or G. pallida J2s with agar slurry and a single tomato seedling (2 days post germination) in a 6 well plate. Assays were left at 23°C for 24 hours in the case of M. incognita and at 18°C for 24 hours in the case of G. pallida under a 16 hour light and 8 hour darkness cycle. Seedlings were stained using acid fuschin [69] and the number of nematodes within the roots counted. At least five seedlings were used for M. incognita infections assays, with at least 15 seedlings used for G. pallida infections assays (due to increased variation).
(§3) B. subtilis were grown overnight in LB media containing ampicillin (100 μg/ml) at 37°C with shaking, and harvested in the log phase of growth determined by measuring OD600nm. Five ml of culture at 0.5 OD was spun down and the pellet mixed with 3 ml of agar slurry and 500 J2s from either G. pallida or M. incognita. C. reinhardtii clones were grown at 23°C with shaking, cultures in the log phase were measured at OD750 and 5 ml of culture at 0.5 OD was pelleted by centrifugation. C. reinhardtii pellets were mixed with 3 ml of agar slurry and 500 J2s from either G. pallida or M. incognita. Plant invasion assays were performed as described above. […]

mixed-stage C. elegans = assay: C. elegans chemotaxis assay (non-target); assay type: in vivo, Caenorhabditis elegans; details: worms soaked in 100 μM uNLP 24 h, counted after 1 h, 8 replicates
Method: C. elegans wild-type N2 Bristol strain were obtained from the C. elegans Genomics Center and maintained on a Escherichia coli (strain OP50) lawn on nematode growth medium (NGM) agar plates (3 g/l NaCl, 17 g/l agar, 2.5 g/l peptone, 5 mg/l cholesterol, 25 mM KH2PO4 (pH 6.0), 1 mM CaCl2, 1 mM MgSO4) at 20°C [70]. Chemotaxis assays were performed in a 9 cm diameter Petri dish on NGM agar which was split into a positive and negative side with a central ‘dead zone’ of 1.5 cm diameter. 100 mixed-staged C. elegans were washed three times in M9 buffer and soaked in 100 μM PPN uNLP, or M9 vehicle control for 24 hours. 2 μl of 50 mM sodium acetate, 0.5% pyrazine, 0.5% benzaldehyde or 0.5% diacetyl was spotted onto the positive side, 2 μl of ddH20 was spotted onto the negative side. Pyrazine, benzaldehyde and diacetyl volatile attractants were assayed immediately whereas the water soluble sodium acetate was assayed 18 hours following addition to the plate. Assays were maintained in the dark at 20°C, and counted after 1 hour. Eight replicates were conducted for each C. elegans attraction assay.

[4] = test system: S. carpocapsae infective juveniles (IJs); assay: S. carpocapsae host-finding assay (non-target); assay type: in vivo, Steinernema carpocapsae; details: Fig 5E; chemotaxis towards insect host Galleria mellonella; 100 IJs incubated 24 h in 100 μM uNLP; n = 5; control 0.2315
Method: S. carpocapsae were cultured in Galleria mellonella at 23°C. Infective juveniles (IJs) were collected using a White trap in PBS. Freshly emerged IJs were used for each assay. 100 IJs were incubated for 24 hours in 100 μM of selected uNLPs, and host-finding assays (n = 5) performed as in Morris et al..

M. incognita J2s [5] = assay: Tomato invasion assay with uNLP pre-treated J2s; assay type: in vivo, Meloidogyne incognita
Method: as §1, §2

M. incognita J2s [6] = assay: Plant protection assay, C. reinhardtii secreting uNLPs; assay type: in vivo, Meloidogyne incognita; details: Fig 4A; peptide secreted by transgenic C. reinhardtii culture in tomato invasion arena with 500 J2s; relative to untransformed C. reinhardtii = 100%; mean
Method: as §2, §3

[7] = Fig 5A, attractant sodium acetate (50 mM), control 0.4269
[8] = Fig 5B, attractant pyrazine (0.5%), control 0.4904
[9] = Fig 5C, attractant benzaldehyde (0.5%), control 0.7026
[10] = Fig 5D, attractant diacetyl (0.5%), control 0.6638

Substance	CI score (M. incognita J2s [1])	% Thrusting (M. incognita J2s [2])	% Invasion (M. incognita J2s [3])	CI score (mixed-stage C. elegans; [7])	CI score (mixed-stage C. elegans; [8])	CI score (mixed-stage C. elegans; [9])	CI score (mixed-stage C. elegans; [10])	CI score [4]	effect on chemosensation (in words) (M. incognita J2s [1]; 100 μM uNLP, 24 h, relative to controls)	effect on host invasion (in words) (M. incognita J2s [5]; 100 μM uNLP, 24 h, tomato cv. Moneymaker, relative to controls)	% Invasion (M. incognita J2s [5]; Fig 1B, 500 J2s incubated in 100 μM uNLP for 24 h, single tomato seedling, 24 h at 23°C, normalised to negative control = 100%, mean)	% Invasion (M. incognita J2s [6])
MVSWQPV [Mi-NLP-40, predicted unamidated NLP of M. incognita, synthesised; also secreted from transgenic B. subtilis]	-0.04	210%	23.72%	0.482	0.5018	0.6686	0.5858	0.3057	–	–	–	–
GGGRYFIRPFADQ [Mi-NLP-9f, predicted unamidated NLP of M. incognita, synthesised; also secreted from transgenic C. reinhardtii]	-0.26	–	–	0.5261	0.4599	0.7463	0.6	0.2462	inhibit chemosensation; also recorded: inhibited	inhibited	28.22%	10.32%
